The numbers were not newly measured in patent US6586005B1, “Extended release formulation of etodolac” (Ranbaxy Laboratories Limited, priority 1999, dated 2003), which cites them from elsewhere.

As to `CCc1cccc2c3c([nH]c12)C(CC)(CC(=O)O)OCC3` (centres unmarked) [Etodolac, 1,8-diethyl-1,3,4,9-tetrahydropyrano [3,4-b] indole-1-acetic acid], the “Difference between solubility at pH 5 to pH 7” value (pH 5 versus pH 7) is “thirty”. Also, for the setting “pH independent below pH 3”, the Aqueous solubility result is reported as “very low aqueous solubility”.
